Reference: patent US11969428B2, “Methods and pharmaceutical compositions for treating lymphoid malignancy” (priority 2011, dated 2024)

Key:
Test in all cases: Ambit KinomeScan screening
Type in all cases: binding
Conditions in all cases: CAL-130 10 μM
FER = biological target: T1, FER (Homo sapiens, UniProt P16591)
T1 construct: unspecified tag ("tagged kinases"); purchased Ambit (KinomeScan screening service)
Summary of the method: (§1)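 Single-concentration profiling (10 μM CAL-130) measured displacement of tagged kinases from an immobilized bait ligand. Percent-of-control binding was reported; smaller values denote stronger interaction.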

p38-α = biological target: T2, p38-α (Homo sapiens, UniProt Q16539)
T2 construct: purchased Ambit (KinomeScan screening service)
T2 sequence (Q16539 whole entry): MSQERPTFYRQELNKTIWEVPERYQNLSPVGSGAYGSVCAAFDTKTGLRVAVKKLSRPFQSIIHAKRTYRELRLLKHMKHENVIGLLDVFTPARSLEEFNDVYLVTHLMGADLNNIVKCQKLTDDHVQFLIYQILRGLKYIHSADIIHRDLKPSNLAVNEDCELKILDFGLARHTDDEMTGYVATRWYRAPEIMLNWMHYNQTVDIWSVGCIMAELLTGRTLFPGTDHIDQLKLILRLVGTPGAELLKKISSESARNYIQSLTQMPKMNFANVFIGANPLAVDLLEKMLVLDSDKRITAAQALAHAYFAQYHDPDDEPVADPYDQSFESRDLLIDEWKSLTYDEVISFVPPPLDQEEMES
Summary of the method: as §1

PIM3 = biological target: T3, PIM3 (Homo sapiens, UniProt Q86V86)
T3 construct: unspecified tag; purchased Ambit (KinomeScan screening panel)
Summary of the method: as §1

MERTK = biological target: T4, MERTK (Homo sapiens, UniProt Q12866)
T4 construct: purchased Ambit (KinomeScan screening)
Summary of the method: as §1

MYLK2 = biological target: T5, MYLK2 (Homo sapiens, UniProt Q9H1R3)
T5 construct: unspecified tag; purchased Ambit (KinomeScan screening panel)
Summary of the method: as §1

ROCK1 = biological target: T6, ROCK1 (Homo sapiens, UniProt Q13464)
T6 construct: unspecified tag (tagged kinase); purchased Ambit (KinomeScan screening)
Summary of the method: as §1

CAMK2B = biological target: T7, CAMK2B (Homo sapiens, UniProt Q13554)
T7 construct: purchased Ambit (KinomeScan screening)
Summary of the method: as §1

MAP4K3 = biological target: T8, MAP4K3 (Homo sapiens, UniProt Q8IVH8)
T8 construct: Ambit (KinomeScan screening)
Summary of the method: as §1

EGFR(E746-A750DEL) = biological target: T9, EGFR(E746-A750DEL) (Homo sapiens, UniProt P00533, DEL746-750)
T9 construct: unspecified tag; purchased Ambit (KinomeScan screening service)
Summary of the method: as §1

PKN1 = biological target: T10, PKN1 (Homo sapiens, UniProt Q16512)
T10 construct: purchased Ambit (KinomeScan screening service)
Summary of the method: as §1

NEK7 = biological target: T11, NEK7 (Homo sapiens, UniProt Q8TDX7)
T11 construct: purchased Ambit (KinomeScan screening service)
Summary of the method: as §1

PLK3 = biological target: T12, PLK3 (Homo sapiens, UniProt Q9H4B4)
T12 construct: purchased Ambit (KinomeScan screening service)
Summary of the method: as §1

CDKL2 = biological target: T13, CDKL2 (Homo sapiens, UniProt Q92772)
T13 construct: purchased Ambit (KinomeScan screening service)
T13 sequence (Q92772 whole entry): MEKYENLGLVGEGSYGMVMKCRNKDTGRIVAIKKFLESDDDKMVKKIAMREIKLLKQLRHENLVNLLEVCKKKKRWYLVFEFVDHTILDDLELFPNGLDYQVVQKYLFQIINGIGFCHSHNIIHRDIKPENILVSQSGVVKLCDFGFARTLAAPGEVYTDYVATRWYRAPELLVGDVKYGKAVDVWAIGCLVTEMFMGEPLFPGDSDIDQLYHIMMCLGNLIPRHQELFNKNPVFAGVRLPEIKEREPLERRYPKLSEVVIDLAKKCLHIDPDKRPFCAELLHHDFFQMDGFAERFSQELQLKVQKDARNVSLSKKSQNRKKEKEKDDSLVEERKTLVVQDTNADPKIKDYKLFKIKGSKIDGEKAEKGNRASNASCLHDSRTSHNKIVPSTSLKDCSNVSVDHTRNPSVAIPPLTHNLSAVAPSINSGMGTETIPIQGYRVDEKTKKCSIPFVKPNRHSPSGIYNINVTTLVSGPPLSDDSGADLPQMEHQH
Summary of the method: as §1

JAK1(JH1domain) = biological target: T14, JAK1(JH1domain) (Homo sapiens, UniProt P23458)
T14 construct: JAK1(JH1domain); purchased Ambit (KinomeScan screening)
Summary of the method: as §1

ABL1(F317L) = biological target: T15, ABL1(F317L) (Homo sapiens, UniProt P00519, F317L)
T15 construct: unspecified tag ("tagged kinases"); purchased Ambit (KinomeScan screening)
Summary of the method: as §1

EGFR(L858R) = biological target: T16, EGFR(L858R) (Homo sapiens, UniProt P00533, L858R)
T16 construct: unspecified tag; purchased Ambit (KinomeScan screening service)
Summary of the method: as §1

EPHA5 = biological target: T17, EPHA5 (Homo sapiens, UniProt P54756)
T17 construct: purchased Ambit (KinomeScan screening service)
T17 sequence (P54756 25-1037): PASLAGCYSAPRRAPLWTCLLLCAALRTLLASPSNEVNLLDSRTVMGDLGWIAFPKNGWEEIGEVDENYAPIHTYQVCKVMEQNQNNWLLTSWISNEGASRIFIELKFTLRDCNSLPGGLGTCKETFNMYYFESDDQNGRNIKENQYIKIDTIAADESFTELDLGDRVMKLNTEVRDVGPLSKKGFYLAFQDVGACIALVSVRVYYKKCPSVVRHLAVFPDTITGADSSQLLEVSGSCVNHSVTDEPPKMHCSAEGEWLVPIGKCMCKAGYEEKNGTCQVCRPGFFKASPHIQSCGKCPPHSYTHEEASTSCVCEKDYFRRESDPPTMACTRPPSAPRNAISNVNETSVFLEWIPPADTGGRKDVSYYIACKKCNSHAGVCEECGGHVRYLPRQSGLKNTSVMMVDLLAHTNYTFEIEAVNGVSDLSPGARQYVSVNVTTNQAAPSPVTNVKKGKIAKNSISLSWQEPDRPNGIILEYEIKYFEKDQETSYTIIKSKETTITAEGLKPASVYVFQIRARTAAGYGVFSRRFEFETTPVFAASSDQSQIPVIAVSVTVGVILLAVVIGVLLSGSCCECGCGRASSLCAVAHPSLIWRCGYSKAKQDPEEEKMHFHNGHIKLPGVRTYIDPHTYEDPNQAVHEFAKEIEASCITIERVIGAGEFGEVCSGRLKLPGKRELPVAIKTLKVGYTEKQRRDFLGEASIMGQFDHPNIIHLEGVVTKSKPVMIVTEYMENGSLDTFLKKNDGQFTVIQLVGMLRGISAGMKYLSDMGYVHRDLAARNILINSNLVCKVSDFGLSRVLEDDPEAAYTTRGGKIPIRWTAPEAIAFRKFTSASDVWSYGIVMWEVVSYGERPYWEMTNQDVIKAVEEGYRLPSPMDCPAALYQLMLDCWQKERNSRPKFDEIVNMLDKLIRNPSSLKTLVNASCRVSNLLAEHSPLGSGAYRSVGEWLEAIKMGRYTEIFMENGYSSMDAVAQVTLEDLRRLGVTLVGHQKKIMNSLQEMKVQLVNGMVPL
Summary of the method: as §1

FRK = biological target: T18, FRK (Homo sapiens, UniProt P42685)
T18 construct: unspecified tag ('tagged kinases'); purchased Ambit (KinomeScan screening service)
Summary of the method: as §1

PKAC-β = biological target: T19, PKAC-β (Homo sapiens, UniProt P22694)
T19 construct: unspecified tag; purchased Ambit (KinomeScan screening panel)
Summary of the method: as §1

FLT3(N841I) = biological target: T20, FLT3(N841I) (Homo sapiens, UniProt P36888, N841I)
T20 construct: unspecified tag; purchased Ambit (KinomeScan screening service)
Summary of the method: as §1

TYRO3 = biological target: T21, TYRO3 (Homo sapiens, UniProt Q06418)
T21 construct: tag, kind not specified; purchased Ambit (KinomeScan screening service)
T21 sequence (Q06418 41-890): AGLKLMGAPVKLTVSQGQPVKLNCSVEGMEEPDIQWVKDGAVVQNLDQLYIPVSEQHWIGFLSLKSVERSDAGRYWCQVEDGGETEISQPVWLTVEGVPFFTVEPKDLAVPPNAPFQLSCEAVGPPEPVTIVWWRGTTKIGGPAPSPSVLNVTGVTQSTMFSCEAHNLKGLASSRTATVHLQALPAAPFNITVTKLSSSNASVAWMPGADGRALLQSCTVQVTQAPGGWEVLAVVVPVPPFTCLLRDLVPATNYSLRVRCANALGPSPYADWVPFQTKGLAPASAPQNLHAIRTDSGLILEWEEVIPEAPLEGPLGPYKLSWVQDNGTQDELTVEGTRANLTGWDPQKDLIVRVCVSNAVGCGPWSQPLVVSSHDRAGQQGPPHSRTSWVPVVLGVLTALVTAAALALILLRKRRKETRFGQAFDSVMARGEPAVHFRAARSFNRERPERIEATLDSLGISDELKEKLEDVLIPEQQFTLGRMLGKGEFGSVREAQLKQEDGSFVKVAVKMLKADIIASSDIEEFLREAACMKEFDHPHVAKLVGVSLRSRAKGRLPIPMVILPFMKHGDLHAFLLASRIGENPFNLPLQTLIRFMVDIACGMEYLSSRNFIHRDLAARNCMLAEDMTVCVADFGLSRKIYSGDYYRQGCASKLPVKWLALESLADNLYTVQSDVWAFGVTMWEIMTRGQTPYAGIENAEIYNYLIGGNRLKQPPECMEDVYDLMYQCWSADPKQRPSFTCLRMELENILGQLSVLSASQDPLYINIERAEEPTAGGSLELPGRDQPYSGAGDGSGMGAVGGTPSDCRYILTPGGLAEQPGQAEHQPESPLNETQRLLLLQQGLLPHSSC
Summary of the method: as §1

MKNK1 = biological target: T22, MKNK1 (Homo sapiens, UniProt Q9BUB5)
T22 construct: unspecified tag ('tagged kinases'); purchased Ambit (KinomeScan screening)
Summary of the method: as §1

ADCK4 = biological target: T23, ADCK4 (Homo sapiens, UniProt Q96D53)
T23 construct: purchased Ambit (KinomeScan screening)
Summary of the method: as §1

YSK1 = biological target: T24, YSK1 (Homo sapiens, UniProt O00506)
T24 construct: purchased Ambit (KinomeScan screening service)
T24 sequence (O00506 whole entry): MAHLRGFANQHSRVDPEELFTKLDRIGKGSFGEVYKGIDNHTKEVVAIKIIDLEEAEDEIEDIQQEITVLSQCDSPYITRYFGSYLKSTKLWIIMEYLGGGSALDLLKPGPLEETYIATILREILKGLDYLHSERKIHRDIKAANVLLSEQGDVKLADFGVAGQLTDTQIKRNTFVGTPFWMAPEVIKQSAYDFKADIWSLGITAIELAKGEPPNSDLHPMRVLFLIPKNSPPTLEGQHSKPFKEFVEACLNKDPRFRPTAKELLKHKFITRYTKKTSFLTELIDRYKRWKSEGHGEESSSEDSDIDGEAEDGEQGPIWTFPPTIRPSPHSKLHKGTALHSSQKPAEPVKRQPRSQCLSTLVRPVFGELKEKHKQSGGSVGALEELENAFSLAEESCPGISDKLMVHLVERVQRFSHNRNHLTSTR
Summary of the method: as §1

AURKB = biological target: T25, AURKB (Homo sapiens, UniProt Q96GD4)
T25 construct: purchased Ambit (KinomeScan screening service)
Summary of the method: as §1

DYRK1A = biological target: T26, DYRK1A (Homo sapiens, UniProt Q13627)
T26 construct: unspecified tag ("tagged kinases"); purchased Ambit (KinomeScan screening service)
Summary of the method: as §1

PIP5K1A = biological target: T27, PIP5K1A (Homo sapiens, UniProt Q99755)
T27 construct: unspecified tag; purchased Ambit (KinomeScan screening panel)
Summary of the method: as §1

MAP3K15 = biological target: T28, MAP3K15 (Homo sapiens, UniProt Q6ZN16)
T28 construct: Ambit (KinomeScan screening)
Summary of the method: as §1

SRC = biological target: T29, SRC (Homo sapiens, UniProt P12931)
T29 construct: tag, kind not specified; purchased Ambit (KinomeScan screening service)
Summary of the method: as §1

PLK1 = biological target: T30, PLK1 (Homo sapiens, UniProt P53350)
T30 construct: purchased Ambit (KinomeScan screening service)
Summary of the method: as §1

RET(V804M) = biological target: T31, RET(V804M) (Homo sapiens, UniProt P07949, V804M)
T31 construct: tag (kind not specified); purchased Ambit (KinomeScan screening service)
Summary of the method: as §1

PRKD1 = biological target: T32, PRKD1 (Homo sapiens, UniProt Q15139)
T32 construct: purchased Ambit (KinomeScan screening service)
Summary of the method: as §1

MET(Y1235D) = biological target: T33, MET(Y1235D) (Homo sapiens, UniProt P08581, Y1235D)
T33 construct: unspecified tag ('tagged kinases'); purchased Ambit (KinomeScan screening)
Summary of the method: as §1

PAK7 = biological target: T34, PAK7 (Homo sapiens, UniProt Q9P286)
T34 construct: unspecified tag ('tagged kinases'); purchased Ambit (KinomeScan screening)
T34 sequence (Q9P286 whole entry): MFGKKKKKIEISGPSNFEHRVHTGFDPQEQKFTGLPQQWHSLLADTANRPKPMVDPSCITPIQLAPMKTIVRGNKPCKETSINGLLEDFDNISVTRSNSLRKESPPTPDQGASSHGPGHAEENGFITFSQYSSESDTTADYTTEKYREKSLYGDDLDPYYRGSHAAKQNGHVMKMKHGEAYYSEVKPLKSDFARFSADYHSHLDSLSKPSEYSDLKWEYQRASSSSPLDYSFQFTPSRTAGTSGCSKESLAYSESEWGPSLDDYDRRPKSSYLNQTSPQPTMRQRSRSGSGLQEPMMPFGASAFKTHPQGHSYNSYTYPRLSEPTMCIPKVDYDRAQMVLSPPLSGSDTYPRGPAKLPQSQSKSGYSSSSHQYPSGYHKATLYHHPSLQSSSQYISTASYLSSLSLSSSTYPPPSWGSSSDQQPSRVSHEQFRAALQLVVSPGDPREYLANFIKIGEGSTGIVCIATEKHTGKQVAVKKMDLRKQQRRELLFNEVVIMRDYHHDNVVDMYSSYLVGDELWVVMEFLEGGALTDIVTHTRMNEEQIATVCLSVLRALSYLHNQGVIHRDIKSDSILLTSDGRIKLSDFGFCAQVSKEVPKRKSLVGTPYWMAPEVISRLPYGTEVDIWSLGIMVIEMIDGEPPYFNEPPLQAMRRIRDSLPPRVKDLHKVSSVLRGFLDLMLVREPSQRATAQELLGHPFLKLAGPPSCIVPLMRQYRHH
Summary of the method: as §1

FGFR2 = biological target: T35, FGFR2 (Homo sapiens, UniProt P21802)
T35 construct: unspecified tag; purchased Ambit (KinomeScan screening service)
T35 sequence (P21802 22-821): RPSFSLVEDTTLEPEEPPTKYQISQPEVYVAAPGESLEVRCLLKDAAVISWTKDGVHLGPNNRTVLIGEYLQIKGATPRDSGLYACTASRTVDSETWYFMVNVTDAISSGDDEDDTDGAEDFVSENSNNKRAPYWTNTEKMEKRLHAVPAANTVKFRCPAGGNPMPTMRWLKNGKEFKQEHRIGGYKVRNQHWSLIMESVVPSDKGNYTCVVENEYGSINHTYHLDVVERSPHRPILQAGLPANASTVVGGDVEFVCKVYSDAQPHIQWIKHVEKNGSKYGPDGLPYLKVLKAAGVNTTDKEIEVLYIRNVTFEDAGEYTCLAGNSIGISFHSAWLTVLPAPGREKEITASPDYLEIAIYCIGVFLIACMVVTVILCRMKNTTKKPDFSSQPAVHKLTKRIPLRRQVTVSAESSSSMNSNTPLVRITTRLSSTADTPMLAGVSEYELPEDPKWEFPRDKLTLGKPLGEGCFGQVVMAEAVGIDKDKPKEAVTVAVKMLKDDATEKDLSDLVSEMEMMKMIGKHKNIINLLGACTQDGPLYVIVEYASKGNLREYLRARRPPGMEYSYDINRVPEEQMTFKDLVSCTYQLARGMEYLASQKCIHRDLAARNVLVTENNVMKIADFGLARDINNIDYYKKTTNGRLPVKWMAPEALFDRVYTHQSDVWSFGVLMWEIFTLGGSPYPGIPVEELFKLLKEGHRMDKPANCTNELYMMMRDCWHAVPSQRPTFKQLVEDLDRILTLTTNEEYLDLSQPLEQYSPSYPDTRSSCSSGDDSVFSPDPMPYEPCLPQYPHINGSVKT
Summary of the method: as §1

Measured: Percent of Control Binding

Cc1ccccc1-n1c(C(C)Nc2nc(N)nc3nc[nH]c23)nc2cccc(C)c2c1=O (centres unmarked) [CAL-130]
100%: all assays above
